Results taken from patent US8293729B2 (Boehringer Ingelheim International GmbH, priority 2009, dated 2012).

Key:
human GPR119 receptor = biological target: T1, human GPR119 receptor (Homo sapiens, UniProt Q8TDV5, S329A/T327A); assay: cAMP assay (LANCE cAMP-384) in HEK293 cells stably expressing mutant human GPR119 receptor; format: cell-based; settings: cAMP accumulation, HEK293 cells stably expressing mutant human GPR119; read-out: EC50
T1 construct: N-terminal leader […]; expressed in transfected cells
T1 sequence (Q8TDV5 with tags, fused parts or gaps T327A/S329A): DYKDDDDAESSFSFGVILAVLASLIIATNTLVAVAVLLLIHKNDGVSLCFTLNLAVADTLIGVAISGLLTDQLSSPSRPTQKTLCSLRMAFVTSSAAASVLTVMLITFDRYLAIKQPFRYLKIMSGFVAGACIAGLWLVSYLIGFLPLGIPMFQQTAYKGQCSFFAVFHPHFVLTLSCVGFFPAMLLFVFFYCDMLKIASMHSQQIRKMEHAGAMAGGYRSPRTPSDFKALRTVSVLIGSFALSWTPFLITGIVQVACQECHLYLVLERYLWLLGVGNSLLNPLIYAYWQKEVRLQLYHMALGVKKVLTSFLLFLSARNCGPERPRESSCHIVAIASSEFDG
Procedure, shortened: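 HEK293 cells stably expressing human GPR119 (T327A/S329A, modified N-terminus), 1000 cells/well, exposed to compound for 20 min at 37° C. cAMP quantified by LANCE TR-FRET against a standard curve; EC50 from 12 points, 30 μM to 100 pM, or % stimulation at 10 μM.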

male ZDF rats = assay: In vivo OGTT (oral glucose tolerance test) in Sprague Dawley or Zucker Diabetic Fatty rats; parameters: species or system rat; settings: nine week old male ZDF rats, 30 mg/kg p.o. 30 minutes prior to glucose bolus, 2 hrs post glucose bolus
Method: Nine to 13 week old Male Sprague Dawley rats weighing 250 g-350 g or 9 week old male Zucker Diabetic Fatty rats weighing 300 g-450 g were fasted overnight for 16 hours. At time zero, blood was collected using the tail-nick method and glucose was measured with a glucometer (Bayer HealthCare) Animals then immediately received either vehicle (80% Labrasol, Gattefossé, France) or 3, 10, or 30 mg/kg GPR119 agonist (p.o., volume 2 mL/kg). Thirty minutes later blood glucose was again measured preceding the administration of a glucose bolus (p.o. 2 g/kg, volume 6 mL/kg). Blood glucose was then determined at 10, 20, 30, 60, 90, 120, and 180 minutes post glucose bolus or 20, 40, 60, 80, 100, and 120 minutes past glucose bolus.
Nine week old male ZDF rats were dosed with either 30 mg/kg of Compound 2-35 or 30 mg/kg of Compound 8-1 30 minutes prior to administration of the glucose bolus.

CC(C)OC(=O)N1CCC(ON=C2CCN(c3cc(F)c([C@@H](C)N)cc3F)CC2)CC1 [Example 8-1, 4-{1-[4-((R)-1-Amino-ethyl)-2,5-difluoro-phenyl]-piperidin-4-ylideneaminooxy}-piperidine-1-carboxylic acid isopropyl ester]
EC50 (human GPR119 receptor): 538 nM | reduction of glucose excursion compared to vehicle (glucose area under the curve) (male ZDF rats): 70%
